In article PMC6044785 (ACS Omega, 2017):
Read-outs that look alike come from different tables or passages of the source. Square brackets hold non-standard residues; d marks the D form. Peptide text beside a SMILES is read from it. Gly(But-3-enyl) = C=CCC[C@H](N)C(=O)O; Aib = CC(C)(N)C(=O)O

Legend:
HeLa nuclear extract = assay: HDAC inhibition assay with HeLa nuclear extract; format: biochemical, human; conditions: read-out: IC50 (μM) HeLa nuclear extract; Table 1; mean ± SD of three independent experiments; >100 = not active (inhibition < 50% at 100 μM)
HDAC6 = molecular target: T1, HDAC6 (Homo sapiens, UniProt Q9UBN7); assay: HDAC6 enzymatic inhibition assay; format: biochemical
T1 sequence (Q9UBN7 1-1215): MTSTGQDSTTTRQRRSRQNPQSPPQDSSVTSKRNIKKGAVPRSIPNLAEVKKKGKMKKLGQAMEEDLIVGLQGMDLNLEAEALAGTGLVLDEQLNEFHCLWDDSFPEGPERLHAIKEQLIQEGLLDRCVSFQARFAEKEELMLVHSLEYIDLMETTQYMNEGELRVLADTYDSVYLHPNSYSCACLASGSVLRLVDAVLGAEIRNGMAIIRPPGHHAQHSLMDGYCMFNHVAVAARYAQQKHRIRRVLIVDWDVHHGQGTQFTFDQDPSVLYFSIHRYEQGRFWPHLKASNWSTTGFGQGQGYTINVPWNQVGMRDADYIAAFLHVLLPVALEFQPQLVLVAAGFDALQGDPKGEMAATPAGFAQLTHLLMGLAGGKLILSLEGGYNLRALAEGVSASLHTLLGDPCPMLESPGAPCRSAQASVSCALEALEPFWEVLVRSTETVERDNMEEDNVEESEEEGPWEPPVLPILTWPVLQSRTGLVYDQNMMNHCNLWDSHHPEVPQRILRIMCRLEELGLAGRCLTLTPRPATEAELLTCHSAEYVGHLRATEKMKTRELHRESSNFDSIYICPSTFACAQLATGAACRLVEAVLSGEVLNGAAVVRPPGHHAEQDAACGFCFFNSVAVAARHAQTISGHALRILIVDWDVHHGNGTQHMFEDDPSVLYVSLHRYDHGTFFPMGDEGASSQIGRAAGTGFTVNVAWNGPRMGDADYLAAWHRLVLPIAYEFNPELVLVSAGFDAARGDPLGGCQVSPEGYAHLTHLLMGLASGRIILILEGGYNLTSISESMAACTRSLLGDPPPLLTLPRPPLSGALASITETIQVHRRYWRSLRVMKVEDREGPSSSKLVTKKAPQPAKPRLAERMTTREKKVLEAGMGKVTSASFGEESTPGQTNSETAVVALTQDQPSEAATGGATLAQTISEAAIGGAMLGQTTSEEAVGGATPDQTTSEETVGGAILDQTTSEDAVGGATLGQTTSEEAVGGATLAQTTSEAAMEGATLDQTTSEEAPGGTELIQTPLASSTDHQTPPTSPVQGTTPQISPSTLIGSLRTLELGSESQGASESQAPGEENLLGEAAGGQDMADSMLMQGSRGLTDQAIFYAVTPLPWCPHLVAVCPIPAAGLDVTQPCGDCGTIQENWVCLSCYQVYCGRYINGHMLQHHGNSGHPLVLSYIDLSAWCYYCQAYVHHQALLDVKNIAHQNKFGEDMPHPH

P. falciparum [1] = assay: P. falciparum [3H]-hypoxanthine incorporation assay; format: cell-based, Plasmodium falciparum 3D7 strain; conditions: Plasmodium falciparum, 3D7, read-out: GI50 (μM) P. falciparum
Jurkat [2] = assay: Antiproliferative activity on Jurkat cells; format: cell-based; conditions: Homo sapiens, read-out: GI50 (μM) Jurkat
K562 [3] = assay: Antiproliferative activity on K562 cells; format: cell-based; conditions: Homo sapiens, K562, read-out: GI50 (μM) K562
HeLa = assay: Antiproliferative activity on HeLa cells; format: cell-based, human; conditions: 72 h, read-out: GI50 (μM) HeLa
HEK293 = assay: Antiproliferative activity on HEK293 cells; format: cell-based, human; conditions: read-out: GI50 (μM) HEK293
HDAC1 = HDAC1 (Homo sapiens, UniProt Q13547); assay: HDAC1 enzymatic inhibition assay; format: biochemical
HDAC3/NCOR2 = HDAC3/NCOR2 (Homo sapiens, UniProt O15379); assay: HDAC3/NCOR2 enzymatic inhibition assay; format: biochemical
HDAC4 = HDAC4 (Homo sapiens, UniProt P56524); assay: HDAC4 enzymatic inhibition assay; format: biochemical
HDAC8 = molecular target: T2, HDAC8 (Homo sapiens, UniProt Q9BY41); assay: HDAC8 enzymatic inhibition assay; format: biochemical
T2 sequence (Q9BY41 1-377): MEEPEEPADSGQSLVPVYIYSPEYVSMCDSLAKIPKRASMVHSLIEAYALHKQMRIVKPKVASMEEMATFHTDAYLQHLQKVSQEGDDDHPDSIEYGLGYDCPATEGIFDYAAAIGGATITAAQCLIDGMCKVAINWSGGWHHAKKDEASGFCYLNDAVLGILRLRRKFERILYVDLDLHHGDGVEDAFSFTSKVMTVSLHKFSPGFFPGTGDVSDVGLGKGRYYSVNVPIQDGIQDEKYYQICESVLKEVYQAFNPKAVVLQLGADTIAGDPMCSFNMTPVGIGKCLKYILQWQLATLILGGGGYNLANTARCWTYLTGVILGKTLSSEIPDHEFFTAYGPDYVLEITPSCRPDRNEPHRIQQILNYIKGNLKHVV

normal B lymphocytes = assay: Antiproliferative activity on normal B lymphocytes; format: cell-based; conditions: Homo sapiens, Lymphocyte, 72 h, read-out: GI50 normal B lymphocytes
P. falciparum [4] = conditions: read-out: GI50 (μM) P. falciparum; Table 3; ref [22]; cited from earlier work
Jurkat [5] = conditions: read-out: GI50 (μM) Jurkat; Table 3; ref [22]; cited from earlier work
K562 [6] = conditions: read-out: GI50 (μM) K562; Table 3; ref [22]; cited from earlier work
T. gondii RH strain = conditions: read-out: IC50 T. gondii RH strain; ref [22]; cited from earlier work

Sequence of HDAC4 (P56524 whole entry): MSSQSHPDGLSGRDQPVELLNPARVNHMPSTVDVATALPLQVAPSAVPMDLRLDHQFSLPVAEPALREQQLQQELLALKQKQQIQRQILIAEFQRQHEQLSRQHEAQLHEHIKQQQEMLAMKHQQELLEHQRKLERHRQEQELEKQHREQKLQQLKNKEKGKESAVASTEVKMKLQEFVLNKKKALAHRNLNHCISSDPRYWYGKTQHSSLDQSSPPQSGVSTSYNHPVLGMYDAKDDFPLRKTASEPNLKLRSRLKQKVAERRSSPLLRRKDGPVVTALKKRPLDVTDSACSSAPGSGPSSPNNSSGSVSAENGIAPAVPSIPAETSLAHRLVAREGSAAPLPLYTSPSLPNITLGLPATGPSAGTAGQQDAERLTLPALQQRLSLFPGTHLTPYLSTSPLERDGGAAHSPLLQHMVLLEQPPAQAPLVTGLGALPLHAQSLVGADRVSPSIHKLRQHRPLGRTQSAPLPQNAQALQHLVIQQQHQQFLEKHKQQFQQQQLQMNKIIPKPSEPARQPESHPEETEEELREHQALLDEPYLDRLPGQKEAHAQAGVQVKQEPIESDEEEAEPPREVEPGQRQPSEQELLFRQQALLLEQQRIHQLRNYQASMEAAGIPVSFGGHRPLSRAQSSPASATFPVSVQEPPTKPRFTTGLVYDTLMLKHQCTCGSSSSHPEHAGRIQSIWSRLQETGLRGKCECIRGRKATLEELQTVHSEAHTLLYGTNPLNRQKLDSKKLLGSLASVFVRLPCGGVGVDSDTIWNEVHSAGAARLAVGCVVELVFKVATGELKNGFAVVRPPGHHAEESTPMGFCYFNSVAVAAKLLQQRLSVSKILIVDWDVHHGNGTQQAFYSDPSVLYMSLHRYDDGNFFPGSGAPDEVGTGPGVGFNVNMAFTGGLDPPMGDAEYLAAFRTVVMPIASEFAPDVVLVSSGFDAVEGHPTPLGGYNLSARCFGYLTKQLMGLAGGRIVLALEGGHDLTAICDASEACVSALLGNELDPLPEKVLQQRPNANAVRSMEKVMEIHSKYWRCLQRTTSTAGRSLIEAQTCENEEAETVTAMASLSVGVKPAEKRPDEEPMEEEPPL
Sequence of HDAC3/NCOR2 (O15379 whole entry): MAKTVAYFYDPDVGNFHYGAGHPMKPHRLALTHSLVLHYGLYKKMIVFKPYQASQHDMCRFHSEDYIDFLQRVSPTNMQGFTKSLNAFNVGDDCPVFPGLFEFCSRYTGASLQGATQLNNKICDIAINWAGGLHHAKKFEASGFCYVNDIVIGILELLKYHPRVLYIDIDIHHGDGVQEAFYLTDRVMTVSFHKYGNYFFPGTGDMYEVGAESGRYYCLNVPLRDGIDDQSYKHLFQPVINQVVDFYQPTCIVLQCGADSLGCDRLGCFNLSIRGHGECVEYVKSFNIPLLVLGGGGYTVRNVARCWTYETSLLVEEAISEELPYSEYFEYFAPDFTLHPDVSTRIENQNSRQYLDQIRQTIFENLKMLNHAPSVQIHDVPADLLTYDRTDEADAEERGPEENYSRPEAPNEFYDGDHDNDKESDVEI
Sequence of HDAC3/NCOR2 (Q9Y618 395-489 partner limits assumed): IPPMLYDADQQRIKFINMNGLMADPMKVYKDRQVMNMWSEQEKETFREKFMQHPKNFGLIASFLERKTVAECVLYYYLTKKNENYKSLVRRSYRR
Sequence of HDAC1 (Q13547 whole entry): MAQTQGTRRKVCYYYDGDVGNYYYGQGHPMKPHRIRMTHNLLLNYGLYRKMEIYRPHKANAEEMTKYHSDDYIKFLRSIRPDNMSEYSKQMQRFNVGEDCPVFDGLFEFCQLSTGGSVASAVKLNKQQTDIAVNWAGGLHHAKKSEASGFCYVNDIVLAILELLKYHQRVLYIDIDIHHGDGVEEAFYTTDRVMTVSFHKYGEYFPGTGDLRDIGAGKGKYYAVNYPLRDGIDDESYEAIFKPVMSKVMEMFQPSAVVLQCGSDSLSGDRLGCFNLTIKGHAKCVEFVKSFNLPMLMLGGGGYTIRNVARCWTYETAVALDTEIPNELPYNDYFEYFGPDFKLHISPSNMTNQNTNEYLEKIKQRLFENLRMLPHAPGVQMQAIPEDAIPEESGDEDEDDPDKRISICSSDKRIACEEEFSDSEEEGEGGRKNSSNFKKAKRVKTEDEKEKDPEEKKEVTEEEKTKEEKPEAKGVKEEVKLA

Structure (SMILES) | IC50 (HeLa nuclear extract) | IC50 (HDAC6) | GI50 (P. falciparum [1]) | GI50 (Jurkat [2]) | GI50 (K562 [3]) | GI50 (HeLa; Homo sapiens) | GI50 (HEK293; Homo sapiens, HEK293, 72 h) | IC50 (HDAC1) | IC50 (HDAC3/NCOR2) | IC50 (HDAC4) | IC50 (HDAC8) | also measured
CC(=O)O[C@H](C)C(=O)CCCCCCC(=O)Nc1ccccc1 [Compound 12b, (R)-3,10-Dioxo-10-(phenylamino)decan-2-yl Acetate] | 63.8 ± 5.3 µM | > 300 µM | 40.1 ± 4.3 µM | ≥ 100 µM | ≥ 100 µM | > 50 µM | 36.3 ± 1.7 µM | – | – | – | – | –
C[C@@H](O)C(=O)CCCCCCCC(=O)Nc1ccccc1 [Compound 11c, (R)-10-Hydroxy-9-oxo-N-phenylundecanamide] | 27.3 ± 5.9 µM | > 300 µM | – | – | – | – | – | – | – | – | – | –
C[C@H](O)C(=O)CCCCCCC(=O)Nc1cccc(-c2cn(-c3ccccc3)nn2)c1 [Compound 11e, (S)-9-Hydroxy-8-oxo-N-(3-(1-phenyl-1H-1,2,3-triazol-4-yl)phenyl)decanamide] | 0.88 ± 0.05 µM | > 300 µM | 4.85 ± 1.3 µM | 2.84 ± 0.7 µM | 7.12 ± 0.9 µM | 115 ± 25.3 µM | 15.9 ± 1.13 µM | 5.04 ± 0.07 µM | 1.97 ± 0.03 µM | > 100 µM | > 100 µM | GI50 (normal B lymphocytes): > 50 µM
CC(=O)O[C@H](C)C(=O)CCCCC[C@@H]1NC(=O)[C@H]2CCCN2C(=O)[C@H](Cc2ccccc2)NC(=O)C(C)(C)NC1=O [Compound 13] | 0.11 ± 0.0008 µM | > 300 µM | – | – | – | – | – | 0.39 ± 0.02 µM | 0.35 ± 0.003 µM | > 100 µM | 1.87 ± 0.42 µM | GI50 (HeLa; Table 3, XTT): 0.119 ± 0.008 µM; GI50 (HEK293; Table 3, 72 h, XTT): 0.006 ± 0.001 µM; GI50 (P. falciparum [4]): 0.0221 ± 0.001 µM; GI50 (Jurkat [5]): 0.127 ± 0.011 µM; GI50 (K562 [6]): 0.061 ± 0.002 µM
C=CCC[C@@H]1NC(=O)[C@H]2CCCN2C(=O)[C@H](Cc2ccccc2)NC(=O)C(C)(C)NC1=O [Compound 14] (cyclo([Aib]F[dP][Gly(But-3-enyl)])) | – | > 300 µM | – | – | – | – | – | – | – | – | – | –
C[C@@H](O)C(=O)CCCCCC(=O)Nc1ccccc1 [Compound 11a, (R)-8-Hydroxy-7-oxo-N-phenylnonanamide] | > 100 µM | 101 ± 2.9 µM | – | – | – | – | – | – | – | – | – | –
C[C@@H](O)C(=O)CCCCC[C@@H]1NC(=O)[C@H]2CCCN2C(=O)[C@H](Cc2ccccc2)NC(=O)C(C)(C)NC1=O [Compound 3] | 0.0081 ± 0.0019 µM | > 300 µM | – | – | – | 0.17 ± 0.01 µM | 0.04 ± 0.02 µM | 0.96 ± 0.6 µM | 0.33 ± 0.01 µM | > 100 µM | 7.02 ± 1.53 µM | GI50 (P. falciparum [4]): 0.0174 ± 0.002 µM; GI50 (Jurkat [5]): 0.048 ± 0.001 µM; GI50 (K562 [6]): 0.018 ± 0.002 µM; IC50 (T. gondii RH strain): 0.0286 µM
C[C@H](O)C(=O)CCCCCCC(=O)Nc1ccccc1 [Compound 11f, (S)-9-Hydroxy-8-oxo-N-phenyldecanamide] | 77.1 ± 6.4 µM | > 300 µM | – | – | – | – | – | – | – | – | – | –
C[C@@H](O)C(=O)CCCCCCC(=O)Nc1ccccc1 [Compound 11b, (R)-9-Hydroxy-8-oxo-N-phenyldecanamide] | 8.9 ± 0.5 µM | > 300 µM | 37.9 ± 3.8 µM | 92 ± 1 µM | 62.3 ± 5.8 µM | > 50 µM | 35.6 ± 1.6 µM | 7.9 ± 0.8 µM | 50.2 ± 4.7 µM | > 100 µM | > 100 µM | –
CCC(=O)CCCCCCC(=O)Nc1ccccc1 [Compound 11g, 8-Oxo-N-phenyldecanamide] | > 100 µM | > 300 µM | – | – | – | – | – | – | – | – | – | –
